# Tested on: ERP72
# Assay: ER chaperone secretion assay, ERP72
# Format: cell-based, human
# Source text: Figure 1. ER retrieval signal abundance and affinity are not correlated. (a) Sequence logos for ER resident proteins with C-terminal KDEL retrieval signals and variants thereof calculated using frequency or protein abundance ([Itzhak et al., 2017]; [Itzhak et al., 2016]). (b) Combined cellular concentrations of ER resident proteins with canonical KDEL, RDEL, and HDEL retrieval sequences in HeLa cells and mouse brain. (c) Competition binding assays for [^3H]-TAEHDEL and unlabelled TAEKDEL, TAERDEL, and TAEHDEL to the KDEL receptor. IC50 values for the competing peptides were used to calculate the apparent KDwith the Cheng-Prusoff equation ([Cheng and Prusoff, 1973]). (d) Endogenous KDEL receptor redistribution was measured in COS-7 cells in the absence (-ligand) or presence of K/R/H/A/DDEL (mScarlet-xDEL^sec). TGN46 was used as a Golgi marker. Scale bar is 10 µm. […] The individual data points for the fraction of KDEL receptor fluorescence in the Golgi are plotted on the upper axes with sample sizes and p values. […] Endogenous ER chaperone secretion was measured by western blotting after challenge with different retrieval signals, and plotted as a bar graph showing mean ± SEM (n = 3). […] (a) Distribution of human KDELR1 and (b) KDELR2 was measured in COS-7 cells in the absence (-ligand) or presence of K/R/H/A/DDEL retrieval signals (K/R/H/A/DDEL^sec). […]
substance,measurement,setting,value
"ADEL [pcDNA3.1 hGHss-mScarlet-H. sapiens BiP639-654K651A (ADEL^SEC), secreted mScarlet fusion with human BiP C-terminus, ADEL signal]",ERP72 secretion after challenge with retrieval signal,"mean, HeLa S3, 24 hr, Western blot densitometry",4.2
same,ERP72 secretion after challenge with retrieval signal,replicate 2,1.0

# From paper PMC8248988, “A signal capture and proofreading mechanism for the KDEL-receptor explains selectivity and dynamic range in ER retrieval” (eLife, 2021)
